pIC50: −log10 of the molar value. The source made the active and inactive calls. No cut-off for these calls is given here.
What was measured:
[1] = test system: unidentified; assay: Stabilization of duplex DNA T-loop (unknown origin) 5'-FAM-dTATAGCTATA-HEG-TATAGCTATA-TAMRA-3' assessed as melting temperature at 1 uM by FRET assay
[2] = test system: 786-0; assay: Cytotoxicity against human 786-0 cells assessed as growth inhibition after 96 hrs by SRB assay; format: functional, cell-based; conditions: 786-0, 96 h
[3] = test system: unidentified; assay: Stabilization of HSP90a promoter sequence 5'-FAM-d(GGGCCAAAGGGAAGGGGTGGG)-TAMRA-3' (unknown origin) assessed as melting temperature at 1 uM by FRET assay
[4] = test system: MCF7; assay: Cytotoxicity against human MCF7 cells assessed as growth inhibition after 96 hrs by SRB assay; format: functional, cell-based; conditions: MCF7, 96 h
[5] = test system: unidentified; assay: Stabilization of HSP90b promoter sequence 5'-FAM-d(GGGCGGGCCAAAGGGAAGGGG)-TAMRA-3' (unknown origin) assessed as melting temperature at 1 uM by FRET assay
[6] = Cytotoxicity against human RCC4 cells assessed as growth inhibition after 96 hrs by SRB assay; format: functional, cell-based; conditions: RCC4, 96 h
[7] = organism: Homo sapiens; assay: Stabilization of human telomeric G-quadruplex DNA sequence 5'-FAM-d(GGG[TTAGGG]3)-TAMRA-3' assessed as melting temperature at 1 uM by FRET assay
[8] = test system: WI-38; assay: Cytotoxicity against human WI38 cells assessed as growth inhibition after 96 hrs by SRB assay; format: cell-based; conditions: WI-38, 96 h
[9] = test system: A549; assay: Cytotoxicity against human A549 cells assessed as growth inhibition after 96 hrs by SRB assay; format: functional, cell-based; conditions: A549, 96 h
[10] = test system: MIA PaCa-2; assay: Cytotoxicity against human MIAPaCa2 cells assessed as growth inhibition after 96 hrs by SRB assay; format: functional, cell-based; conditions: MIA PaCa-2, 96 h
[11] = test system: MIA PaCa-2; assay: Inhibition of telomerase activity in human MIAPaCa2 cells assessed as telomere elongation up to 10 uM after 7 days by TRAP-LIG assay; format: cell-based
[12] = Selectivity ratio of IC50 for human WI-38 cells to IC50 for human 786-0 cells; format: ADME, cell-based; conditions: WI-38 cells versus 786-0 cells, read-out: Ratio IC50
[13] = test system: MIA PaCa-2; assay: Induction of senescence in human MIAPaCa2 cells at 3.3 to 6.6 nM after 7 days by beta-galactosidase assay relative to vehicle-treated control; format: functional
[14] = test system: MIA PaCa-2; assay: Induction of senescence in human MIAPaCa2 cells at 25 to 50 nM after 7 days by beta-galactosidase assay relative to vehicle-treated control; format: functional, cell-based
[15] = test system: MIA PaCa-2; assay: Inhibition of telomerase activity in human MIAPaCa2 cells assessed as telomere elongation at 25 to 50 nM by TRAP-LIG assay; format: cell-based

Row | ΔTm [1] | ΔTm [3] | ΔTm [5] | ΔTm [7] | SMILES | pIC50 [2] | pIC50 [4] | pIC50 [6] | pIC50 [8] | pIC50 [9] | pIC50 [10] | inhibition [11] | selectivity ratio [12] | Activity [13] | Activity [14] | inhibition [15]
1 | 1.7 °C | 30.6 °C | 27.6 °C | 24.7 °C | CN1CCN(CCNc2cc3c4c(c(NCCN5CCN(C)CC5)cc5c4c2C(=O)N(CCN2CCOCC2)C5=O)C(=O)N(CCN2CCOCC2)C3=O)CC1 | 5.83 | 6.74 | 5.29 | 5.93 | 5.31 |  |  |  |  |  | 
2 | 0.8 °C | 33.9 °C | 29.1 °C | 27 °C | CN1CCN(CCCNc2cc3c4c(c(NCCCN5CCN(C)CC5)cc5c4c2C(=O)N(CCN2CCOCC2)C5=O)C(=O)N(CCN2CCOCC2)C3=O)CC1 | 6.20 | 6.77 | 5.76 | 6.21 | 5.81 | 7.40 |  |  |  |  | 
3 | 0 °C | 29 °C | 23.8 °C | 0.5 °C | COCCCN1C(=O)c2cc(NCCCN3CCN(C)CC3)c3c4c(cc(NCCCN5CCN(C)CC5)c(c24)C1=O)C(=O)N(CCCOC)C3=O | 5.14 | 5.25 | 4.98 | 5.48 | 5.60 | 5.55 | inactive |  |  |  | 
4 | 8.1 °C | 31.9 °C | 31.1 °C | 27.8 °C | CN1CCN(CCNc2cc3c4c(c(NCCN5CCN(C)CC5)cc5c4c2C(=O)N(CCCN2CCOCC2)C5=O)C(=O)N(CCCN2CCOCC2)C3=O)CC1 |  | 7.52 | 6.55 | 5.61 | > 8.00 | 8.00 | inactive |  |  |  | 
5 | 0.2 °C | 0.7 °C | 0.8 °C | 0.1 °C | CN1CCN(CCCNc2cc3c4c(c(NCCCN5CCN(C)CC5)cc5c4c2C(=O)N(CC2CCOCC2)C5=O)C(=O)N(CC2CCOCC2)C3=O)CC1 | 5.92 | 5.51 | 5.08 | 4.90 | 5.53 | 5.60 |  | 10 |  |  | 
6 | 0.2 °C | 27.1 °C | 21 °C | 22.7 °C | CN1CCN(CCCNc2cc3c4c(c(NCCCN5CCN(C)CC5)cc5c4c2C(=O)N(CC2CCCO2)C5=O)C(=O)N(CC2CCCO2)C3=O)CC1 (racemic) | < 5.00 | < 5.00 | < 5.00 | < 5.00 | 5.25 | 5.25 | inactive |  |  |  | 
7 | 0.3 °C | 0.9 °C | 1.1 °C | 0.2 °C | CN1CCN(CCCNc2cc3c4c(c(NCCCN5CCN(C)CC5)cc5c4c2C(=O)N(Cc2ccco2)C5=O)C(=O)N(Cc2ccco2)C3=O)CC1 | 5.96 | 5.58 | 5.51 | 5.16 | 5.62 | 5.55 |  |  | 50% |  | 
8 | 1.3 °C | 36.3 °C | 32 °C | 28.3 °C | CN1CCN(CCCNc2cc3c4c(c(NCCCN5CCN(C)CC5)cc5c4c2C(=O)N(CCCN2CCN(C)CC2)C5=O)C(=O)N(CCCN2CCN(C)CC2)C3=O)CC1 |  |  |  | 5.05 |  |  |  |  |  | Active | inactive

— ChEMBL document CHEMBL2331400, “Structure-based design and evaluation of naphthalene diimide G-quadruplex ligands as telomere targeting agents in pancreatic cancer cells” (J Med Chem, 2013)
